PubChem BioAssay (NCI)
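Cells were grown in 96-well plates and exposed to each compound for 48 hours at five concentrations; endpoints were interpolated linearly between bracketing concentrations, or set to the highest concentration if not reached. The concentration for 50% growth inhibition is given as GI50. At the TGI there is no net growth.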

Experiments:
Assay in all cases: growth of human tumour cells (NCI), 48 h
786-0 renal = tested on: 786-0 renal
A498 renal = tested on: A498 renal
A549 NSCLC = tested on: A549 NSCLC
ACHN renal = tested on: ACHN renal
CAKI-1 renal = tested on: CAKI-1 renal
CCRF-CEM leukemia = tested on: CCRF-CEM leukemia
COLO 205 colon = tested on: COLO 205 colon
DU-145 prostate = tested on: DU-145 prostate
EKVX NSCLC = tested on: EKVX NSCLC
HCC-2998 colon = tested on: HCC-2998 colon
HCT-116 colon = tested on: HCT-116 colon
HCT-15 colon = tested on: HCT-15 colon
HL-60(TB) leukemia = tested on: HL-60(TB) leukemia
HOP-62 NSCLC = tested on: HOP-62 NSCLC
HS 578T breast = tested on: HS 578T breast
HT29 colon = tested on: HT29 colon
IGROV1 ovarian = tested on: IGROV1 ovarian
K-562 leukemia = tested on: K-562 leukemia
KM12 colon = tested on: KM12 colon
LOX IMVI melanoma = tested on: LOX IMVI melanoma
M14 melanoma = tested on: M14 melanoma
MALME-3M melanoma = tested on: MALME-3M melanoma
MCF7 breast = tested on: MCF7 breast
MDA-MB-231 breast = tested on: MDA-MB-231 breast
MDA-MB-435 = tested on: MDA-MB-435
MOLT-4 leukemia = tested on: MOLT-4 leukemia
NCI-H226 lung = tested on: NCI-H226 lung
NCI-H23 lung = tested on: NCI-H23 lung
NCI-H460 lung = tested on: NCI-H460 lung
NCI-H522 lung = tested on: NCI-H522 lung
NCI/ADR-RES ovarian = tested on: NCI/ADR-RES ovarian
OVCAR-3 ovarian = tested on: OVCAR-3 ovarian
OVCAR-4 ovarian = tested on: OVCAR-4 ovarian
OVCAR-5 ovarian = tested on: OVCAR-5 ovarian
OVCAR-8 ovarian = tested on: OVCAR-8 ovarian
RPMI-8226 leukemia = tested on: RPMI-8226 leukemia
RXF 393 renal = tested on: RXF 393 renal
SF-268 CNS = tested on: SF-268 CNS
SF-295 CNS = tested on: SF-295 CNS
SF-539 CNS = tested on: SF-539 CNS
SK-MEL-2 melanoma = tested on: SK-MEL-2 melanoma
SK-MEL-28 melanoma = tested on: SK-MEL-28 melanoma
SK-MEL-5 melanoma = tested on: SK-MEL-5 melanoma
SK-OV-3 ovarian = tested on: SK-OV-3 ovarian
SN12C renal = tested on: SN12C renal
SNB-19 CNS = tested on: SNB-19 CNS
SNB-75 CNS = tested on: SNB-75 CNS
SR leukemia = tested on: SR leukemia
SW-620 colon = tested on: SW-620 colon
TK-10 renal = tested on: TK-10 renal
U251 CNS = tested on: U251 CNS
UACC-257 melanoma = tested on: UACC-257 melanoma
UACC-62 melanoma = tested on: UACC-62 melanoma
UO-31 renal = tested on: UO-31 renal
BT-549 breast = tested on: BT-549 breast
PC-3 prostate = tested on: PC-3 prostate

With COc1ccc2cc(C#Cc3ccc(-n4c(/C=C/c5cc(OC)c(OC)c(OC)c5)nc5ccccc5c4=O)c(C)c3)ccc2c1 the GI50 (786-0 renal) was > 100 µM, the TGI (786-0 renal) was > 100 µM and the GI50 (A498 renal) was > 100 µM. The TGI (A498 renal) was > 100 µM, the GI50 (A549 NSCLC) was > 100 µM and the TGI (A549 NSCLC) was > 100 µM. For the same compound, the GI50 (ACHN renal) was > 100 µM, the TGI (ACHN renal) was > 100 µM and the GI50 (CAKI-1 renal) was 4.91 µM. The TGI (CAKI-1 renal) was > 100 µM, the GI50 (CCRF-CEM leukemia) was > 100 µM and the TGI (CCRF-CEM leukemia) was > 100 µM. For the same compound, the GI50 (COLO 205 colon) was 6.96 µM, the TGI (COLO 205 colon) was > 100 µM and the GI50 (DU-145 prostate) was > 100 µM. The TGI (DU-145 prostate) was > 100 µM, the GI50 (EKVX NSCLC) was 24.1 µM and the TGI (EKVX NSCLC) was > 100 µM. For the same compound, the GI50 (HCC-2998 colon) was > 100 µM, the TGI (HCC-2998 colon) was > 100 µM and the GI50 (HCT-116 colon) was 3.53 µM. The TGI (HCT-116 colon) was > 100 µM, the GI50 (HCT-15 colon) was 1.22 µM and the TGI (HCT-15 colon) was > 100 µM. For the same compound, the GI50 (HL-60(TB) leukemia) was 0.686 µM, the TGI (HL-60(TB) leukemia) was > 100 µM and the GI50 (HOP-62 NSCLC) was > 100 µM. For the same compound, the TGI (HOP-62 NSCLC) was > 100 µM, the GI50 (HS 578T breast) was > 100 µM and the TGI (HS 578T breast) was > 100 µM. The GI50 (HT29 colon) was 3.41 µM, the TGI (HT29 colon) was > 100 µM and the GI50 (IGROV1 ovarian) was > 100 µM. For the same compound, the TGI (IGROV1 ovarian) was > 100 µM, the GI50 (K-562 leukemia) was 0.882 µM and the TGI (K-562 leukemia) was > 100 µM. For the same compound, the GI50 (KM12 colon) was 4.3 µM, the TGI (KM12 colon) was > 100 µM and the GI50 (LOX IMVI melanoma) was 5.94 µM. The TGI (LOX IMVI melanoma) was > 100 µM, the GI50 (M14 melanoma) was 12.7 µM and the TGI (M14 melanoma) was > 100 µM. For the same compound, the GI50 (MALME-3M melanoma) was 42.6 µM, the TGI (MALME-3M melanoma) was > 100 µM and the GI50 (MCF7 breast) was 63.8 µM. For the same compound, the TGI (MCF7 breast) was > 100 µM, the GI50 (MDA-MB-231 breast) was 37 µM and the TGI (MDA-MB-231 breast) was > 100 µM. For the same compound, the GI50 (MDA-MB-435) was > 100 µM, the TGI (MDA-MB-435) was > 100 µM and the GI50 (MOLT-4 leukemia) was 4.66 µM. For the same compound, the TGI (MOLT-4 leukemia) was > 100 µM, the GI50 (NCI-H226 lung) was > 100 µM and the TGI (NCI-H226 lung) was > 100 µM. The GI50 (NCI-H23 lung) was 40.5 µM, the TGI (NCI-H23 lung) was > 100 µM and the GI50 (NCI-H460 lung) was 2.48 µM. For the same compound, the TGI (NCI-H460 lung) was > 100 µM, the GI50 (NCI-H522 lung) was > 100 µM and the TGI (NCI-H522 lung) was > 100 µM. For the same compound, the GI50 (NCI/ADR-RES ovarian) was > 100 µM, the TGI (NCI/ADR-RES ovarian) was > 100 µM and the GI50 (OVCAR-3 ovarian) was 19.3 µM. The TGI (OVCAR-3 ovarian) was > 100 µM, the GI50 (OVCAR-4 ovarian) was > 100 µM and the TGI (OVCAR-4 ovarian) was > 100 µM. The GI50 (OVCAR-5 ovarian) was > 100 µM, the TGI (OVCAR-5 ovarian) was > 100 µM and the GI50 (OVCAR-8 ovarian) was > 100 µM. For the same compound, the TGI (OVCAR-8 ovarian) was > 100 µM, the GI50 (RPMI-8226 leukemia) was 0.821 µM and the TGI (RPMI-8226 leukemia) was > 100 µM. The GI50 (RXF 393 renal) was > 100 µM, the TGI (RXF 393 renal) was > 100 µM and the GI50 (SF-268 CNS) was > 100 µM. The TGI (SF-268 CNS) was > 100 µM, the GI50 (SF-295 CNS) was > 100 µM and the TGI (SF-295 CNS) was > 100 µM. The GI50 (SF-539 CNS) was > 100 µM, the TGI (SF-539 CNS) was > 100 µM and the GI50 (SK-MEL-2 melanoma) was > 100 µM. The TGI (SK-MEL-2 melanoma) was > 100 µM, the GI50 (SK-MEL-28 melanoma) was > 100 µM and the TGI (SK-MEL-28 melanoma) was > 100 µM. For the same compound, the GI50 (SK-MEL-5 melanoma) was 1.85 µM, the TGI (SK-MEL-5 melanoma) was > 100 µM and the GI50 (SK-OV-3 ovarian) was > 100 µM. For the same compound, the TGI (SK-OV-3 ovarian) was > 100 µM, the GI50 (SN12C renal) was > 100 µM and the TGI (SN12C renal) was > 100 µM. For the same compound, the GI50 (SNB-19 CNS) was > 100 µM, the TGI (SNB-19 CNS) was > 100 µM and the GI50 (SNB-75 CNS) was > 100 µM. For the same compound, the TGI (SNB-75 CNS) was > 100 µM, the GI50 (SR leukemia) was 0.395 µM and the TGI (SR leukemia) was > 100 µM. The GI50 (SW-620 colon) was 17.2 µM, the TGI (SW-620 colon) was > 100 µM and the GI50 (TK-10 renal) was > 100 µM. The TGI (TK-10 renal) was > 100 µM, the GI50 (U251 CNS) was 7.4 µM and the TGI (U251 CNS) was > 100 µM. For the same compound, the GI50 (UACC-257 melanoma) was 6.24 µM, the TGI (UACC-257 melanoma) was > 100 µM and the GI50 (UACC-62 melanoma) was 2.19 µM. The TGI (UACC-62 melanoma) was > 100 µM, the GI50 (UO-31 renal) was > 100 µM and the TGI (UO-31 renal) was > 100 µM.

For OCCCC(O)(c1ccccc1)c1ccccc1, the TGI (786-0 renal) was > 100 µM, the TGI (A549 NSCLC) was > 100 µM and the TGI (ACHN renal) was > 100 µM. For the same compound, the TGI (BT-549 breast) was > 100 µM, the TGI (CCRF-CEM leukemia) was > 100 µM and the TGI (EKVX NSCLC) was > 100 µM. The TGI (HCC-2998 colon) was > 100 µM, the TGI (HCT-15 colon) was > 100 µM and the TGI (HL-60(TB) leukemia) was > 100 µM. The TGI (HOP-62 NSCLC) was > 100 µM, the TGI (HS 578T breast) was > 100 µM and the TGI (HT29 colon) was > 100 µM. For the same compound, the TGI (IGROV1 ovarian) was > 100 µM, the TGI (K-562 leukemia) was > 100 µM and the TGI (KM12 colon) was > 100 µM. For the same compound, the TGI (LOX IMVI melanoma) was > 100 µM, the TGI (M14 melanoma) was > 100 µM and the TGI (MALME-3M melanoma) was > 100 µM. The TGI (MCF7 breast) was > 100 µM, the TGI (MDA-MB-435) was > 100 µM and the TGI (MOLT-4 leukemia) was > 100 µM. The TGI (NCI-H226 lung) was > 100 µM, the TGI (NCI-H23 lung) was > 100 µM and the TGI (NCI-H460 lung) was > 100 µM. For the same compound, the TGI (NCI-H522 lung) was > 100 µM, the TGI (NCI/ADR-RES ovarian) was > 100 µM and the TGI (OVCAR-3 ovarian) was > 100 µM. The TGI (OVCAR-4 ovarian) was > 100 µM, the TGI (OVCAR-5 ovarian) was > 100 µM and the TGI (OVCAR-8 ovarian) was > 100 µM. For the same compound, the TGI (PC-3 prostate) was > 100 µM, the TGI (RPMI-8226 leukemia) was > 100 µM and the TGI (RXF 393 renal) was > 100 µM. The TGI (SF-268 CNS) was > 100 µM, the TGI (SF-295 CNS) was > 100 µM and the TGI (SF-539 CNS) was > 100 µM. The TGI (SK-MEL-2 melanoma) was > 100 µM, the TGI (SK-MEL-28 melanoma) was > 100 µM and the TGI (SK-MEL-5 melanoma) was > 100 µM. For the same compound, the TGI (SK-OV-3 ovarian) was > 100 µM, the TGI (SN12C renal) was > 100 µM and the TGI (SNB-19 CNS) was > 100 µM. For the same compound, the TGI (SNB-75 CNS) was > 100 µM, the TGI (SR leukemia) was > 100 µM and the TGI (SW-620 colon) was > 100 µM. The TGI (TK-10 renal) was > 100 µM, the TGI (U251 CNS) was > 100 µM and the TGI (UACC-257 melanoma) was > 100 µM. For the same compound, the TGI (UACC-62 melanoma) was > 100 µM and the TGI (UO-31 renal) was > 100 µM.
